# Data published in EP4321023A1, “MOSQUITO REPELLENT COMPOSITION COMPRISING YARROW ESSENTIAL OIL” (National Hellenic Research Foundation, priority 2022, dated 2024).
# Columns and labels:
# [1] = system: 3D human skin tissues; assay: Histological analysis (eosin and hematoxylin) after 48 h topical application; format: cell-based; details: dose 200 µg EO/cm^2, 48 hours; Figure 8
# Experimental: Following topical application of nano-emulsion 1 of Example 2 (Yarrow essential oil (2% Achillea millefolium essential oil)) or of nano-emulsion 2 of Example 2 (mixture of 1% Yarrow essential oil (Achillea millefolium essential oil) with 1% Lavandin oil (Hybrid Lavandula intermedia essential oil) [1:1 w/w]) on 3D human skin tissues, for 48 hours, skin specimens are collected and further processed for: [1] histological analysis (Furio, Pampalakis et al., 2015) and [2] molecular analysis.
# First, 3D-reconstructed human skin tissue culture media is replaced with fresh, pre-warmed media. Under sterile conditions, tissues are exposed topically to each test nano-emulsion (dose, 200 µg EO/cm^2). 5% SDS a widely known skin irritant was used as positive control. […] Alternatively, total RNA was extracted from 3D human skin tissues (Macherey-Nagel) to quantify relative expression of tight junction proteins with the aim to test for potential alterations in expression levels (Figure 9 ). Then, synthesized cDNAs (SuperScript™ First-Strand Synthesis System for RT-PCR, Invitrogen) were used as template for RT-qPCR (SYBR™ Select, Applied Biosystems) to quantify the relative expression levels of tight junction proteins encoding genes using the gene-specific primers enlisted in Table 8. […]
# [2] = system: EpiOcular™ tissues; format: cell-based; details: human, 30 min, 200 µg EO/cm^2
# Experimental: The EpiOcular™ eye irritation test (Stern, Klausner et al., 1998) (OCL-200-EIT) purchased by MatTek was used in this study to evaluate the eye irritation potential of nano-emulsion 1 of Example 2 (Yarrow essential oil (2% Achillea millefolium essential oil)) or of nano-emulsion 2 of Example 2 (mixture of 1% Yarrow essential oil (Achillea millefolium essential oil) with 1% Lavandin oil (Hybrid Lavandula intermedia essential oil) [1:1 w/w]).
# Fresh tissues are equilibrated at RT for 15 min, then, transferred onto 6-well plates and pre-incubated at standard culture conditions for 1 hour in assay medium, which is DMEM based medium (MatTek), then, replaced, and tissues are incubated overnight under standard culture conditions. The tissues are prehydrated with Ca^++Mg^++Free-DPBS and incubated at standard culture conditions for 30±2 min. Each nano-emulsion (dose: 200 µg EO/cm^2) and control samples are applied topically on the EpiOcular™ tissues. The tissues are incubated for 30±2 min followed by removal of the nano-emulsions by extensive rinsing of the tissues with Ca^++Mg^++Free-DPBS. […] Finally, the MTT assay is performed, and the relative tissue viability is calculated for each tissue as % of the mean viability of the negative control tissues. […]
# [3] = system: Epiderm™ tissues; assay: EpiDerm skin irritation test (EPI-200-SIT), MTT tissue viability; format: cell-based, human
# Excerpt: The EpiDerm™ skin irritation test kit (Schafer-Korting, Bock et al., 2008) (EPI-200-SIT) was purchased by MatTek (https://www.mattek.com/) and used in this study. The value of this method lies in that it provides in vivo prediction for classification testing of the nano-emulsions as irritant or non-irritant, based on in vitro results. According to the EU and GHS classification (R38/ Category 2 or no label), an irritant is predicted if the mean relative tissue viability of individual tissues exposed to the test substance is reduced below 50% of the mean viability of the negative controls run in parallel.
# The experimental procedure for the skin irritation test is the following. Fresh tissues are transferred onto 6-well plates and pre-incubated under standard culture conditions for 1 hour in the assay medium (DMEM based medium, MatTek). Then, the assay medium is replaced by fresh assay medium, and tissues are incubated overnight. […] Then, the blue formazan salt formed by cellular mitochondria is extracted with 2.0 ml/tissue of isopropanol (extractant solution, part # MTT-100-EXT) and the optical density of the extracted formazan is determined at 570 nm using a spectrophotometer. Relative tissue viability is calculated for each tissue as % of the mean viability of the negative control tissues. […]
compound,measurement,setting,value
"COC(C)=O [PC, methyl acetate]",skin morphology by eosin and hematoxylin staining,[1],high degree of damage
same,"Mean of viabilities, %",[2],13.46%
same,Classification,"[3]; skin irritation, prediction model developed by MatTek","I, qualified (I, irritant)"
same,"Mean of viabilities, %","[3]; skin, dose 200 µg EO/cm^2, 60±1 min exposure, % of mean viability of negative control, 2 tissues",2.828%
